According to patent US8404672B2, “Substituted heterocyclic compounds” (Bristol-Meyers Squibb Company, priority 2009, dated 2013):

How the values were obtained:
human S1P1 = molecular target: T1, human S1P1 (Homo sapiens, UniProt P21453); assay: S1P1 Binding Assay (33P-S1P radioligand competition, CHO cell membranes); settings: membranes from CHO cells expressing human S1P1; 0.03 nM 33P-S1P; 60 min room temperature
T1 construct: expressed in transfected cells; host or cells: CHO cells
Experimental: Membranes were prepared from CHO cells expressing human S1P1. Cells were dissociated in buffer containing 20 mM HEPES, pH 7.5, 50 mM NaCl, 2 mM EDTA and Protease Inhibitor cocktail (Roche), and disrupted on ice using the Polytron homogenizer. The homogenate was centrifuged at 20,000 rpm (48,000 g) and the supernatant was discarded. The membrane pellets were resuspended in buffer containing 50 mM HEPES, pH 7.5, 100 mM NaCl, 1 mM MgCl2, 2 mM EDTA and stored in aliquots at −80° C. after protein concentration determination.
Membranes ([…]) and 0.03 nM final concentration of ^33P—S1P ligand (1 mCi/ml, American Radiolabeled Chemicals) were added to the compound plates. Binding was performed for 60 min at room temperature, terminated by collecting the membranes onto GF/B filter plates, and radioactivity was measured by TOPCOUNT®. The competition data of the test compounds over a range of concentrations was plotted as percentage inhibition of radioligand specific binding. The IC50 is defined as the concentration of competing ligand needed to reduce specific binding by 50%.
Compounds of the present invention and Comparative Compound A were tested in the S1P1 binding assay described hereinabove and the results rounded to two digits, shown in Table A were obtained. In some instances, the value is an average of multiple experiments where N is the number of experiments conducted that provided satisfactory dose response curves. When more than one batch of an example was tested, the value presented is from the batch which allowed a comparison of GTPγS S1P1 and GTPγS S1P3 in Method A (Data shown in Table B). Data was not averaged across different batches of an example compound.

[1] = molecular target: T2, S1P1 (membranes from S1P1/CHO cells) (Homo sapiens, UniProt P21453); assay: Method A: Receptor [35S] GTPγS Binding Assay, S1P1; format: biochemical; settings: Method A; S1P1/CHO membranes
T2 construct: expressed in transfected cells; host or cells: S1P1/CHO cells
T2 sequence (P21453 whole entry): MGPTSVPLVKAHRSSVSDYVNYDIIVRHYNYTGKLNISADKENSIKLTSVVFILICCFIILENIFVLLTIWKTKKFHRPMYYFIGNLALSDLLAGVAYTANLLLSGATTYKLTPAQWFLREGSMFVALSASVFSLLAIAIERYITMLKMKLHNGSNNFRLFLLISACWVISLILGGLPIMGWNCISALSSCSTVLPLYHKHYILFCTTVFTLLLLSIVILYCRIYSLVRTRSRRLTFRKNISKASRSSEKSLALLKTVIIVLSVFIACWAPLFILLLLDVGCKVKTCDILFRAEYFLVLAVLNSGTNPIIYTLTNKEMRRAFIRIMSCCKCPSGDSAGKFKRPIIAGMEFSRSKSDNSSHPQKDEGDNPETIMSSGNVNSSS
Experimental: Method A: Receptor [35S] GTPγS Binding Assays
Compounds were loaded in a 384 Falcon v-bottom plate (0.5 μl/well in a 3-fold dilution). Membranes prepared from S1P1/CHO cells or EDG3-Gal5-bla HEK293T cells were added to the compound plate (40 μl/well, final protein 3 μg/well) with MULTIDROP®. [^35S]GTP (1250 Ci/mmol, Perkin Elmer) was diluted in assay buffer: 20 mM HEPES, pH 7.5, 10 mM MgCl2, 150 mM NaCl, 1 mM EGTA, 1 mM DTT, 10 μM GDP, 0.1% fatty acid free BSA, and 10 μg/ml Saponin to 0.4 nM. 40 μl of the [^35S] GTP solution was added to the compound plate with a final concentration of 0.2 nM. The reaction was kept at room temperature for 45 min. At the end of incubation, all the mixtures in the compound plate were transferred to a 384 well FB filter plates via GPCR robot system. The filter plate was washed with water 4 times by using the modified manifold Embla plate washer and dried at 60° C. for 45 min. 30 μA of MicroScint 20 scintillation fluid was added to each well for counting at Packard TOPCOUNT®. EC50 is defined as the agonist concentration that corresponds to 50% of the Ymax (maximal response) obtained for each individual compound tested.
(§1) Compounds of the present invention and Comparative Compound A were tested in the Receptor [35S] GTPγS Binding Assays (Method A) and Receptor [35S] In some instances, the value is an average of multiple experiments where N is the number of experiments conducted that provided satisfactory dose response curves. When more than one batch of an example was tested, the value presented is from a batch which allowed a comparison of GTPγS S1P1 and GTPγS S1P3 in which the most number of experiments were performed. Preferably, the same batch was examined in Method A and Method B. Data was not averaged across different batches of an example compound.

[2] = molecular target: T3, S1P1 (membranes from S1P1 transfected CHO cells) (Homo sapiens, UniProt P21453); assay: Method B: Receptor [35S] GTPγS SPA Binding Assay, S1P1; format: biochemical
T3 construct: expressed in transfected cells; host or cells: CHO cells
T3 sequence (P21453 whole entry): as above
Experimental: (§2) Method B: Receptor [35S] GTPγS SPA Binding Assays
(§3) Membranes prepared from S1P1 or S1P3 transfected CHO cells ([…]) were incubated in 96-well white plates (CORNING® 3693) with test compounds diluted in DMSO, in 50 μl of reaction mixture containing 7.5 μl WGA-PVT beads (20 mg/ml), and 5 μM GDP, 20 mM HEPES pH 7.4, 100 mM NaCl, 1 mM EDTA, 5 mM MgCl2, 10 μg/ml saponin, 0.1% BSA, and 1 μM leupeptin. The assay was initiated with the addition of […] of 0.2 nM [^35S]-GTPγS (1250 Ci/mmol; NEN) in assay buffer. After 90 min incubation at room temperature, spin the plate at 1000 rpm for 5 min. The bound radionuclides were measured at TOPCOUNT®, expressed as % response relative to S1P (1 μM) activation. Data was analyzed using the four parameter logistic equation in Excel. The four parameters in the equation, Y=A+((B−A)/(1+((EC50/X)^D))), are described as following: A is the Y value (agonist activity) at the bottom plateau; B is the Y value at the top plateau; EC50 is the X value (agonist concentration) when the response is halfway between bottom and top; D is Hill coefficient. Curves were not generated for compounds having Ymax values were below 50%.
as §1

[3] = molecular target: T4, S1P3 (membranes from S1P3 transfected CHO cells) (Homo sapiens, UniProt Q99500); assay: Method B: Receptor [35S] GTPγS SPA Binding Assay, S1P3; format: biochemical
T4 construct: expressed in transfected cells; host or cells: CHO cells
T4 sequence (Q99500 whole entry): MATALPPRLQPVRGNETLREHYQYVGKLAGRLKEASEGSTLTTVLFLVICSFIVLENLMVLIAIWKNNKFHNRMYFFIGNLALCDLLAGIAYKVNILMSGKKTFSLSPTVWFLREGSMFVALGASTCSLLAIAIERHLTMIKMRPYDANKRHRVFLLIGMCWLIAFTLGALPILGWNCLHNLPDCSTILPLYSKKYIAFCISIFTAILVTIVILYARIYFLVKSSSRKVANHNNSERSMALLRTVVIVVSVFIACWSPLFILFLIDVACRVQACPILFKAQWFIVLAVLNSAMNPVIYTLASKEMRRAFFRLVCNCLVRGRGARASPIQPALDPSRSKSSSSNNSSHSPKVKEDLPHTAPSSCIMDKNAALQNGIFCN
Experimental: as §2, §3, §1

circulating lymphocytes [4] = assay: Blood Lymphocyte Reduction Assay (BLR) in rats; format: in vivo; settings: Lewis rats, oral, vs vehicle group
Experimental: (§4) Blood Lymphocyte Reduction Assay (BLR) in Rodents
(§5) Lewis rats or BALB/c mice were dosed orally with test article (as a solution or suspension in the vehicle) or vehicle alone (polyethylene glycol 300, “PEG300”). Blood was drawn at 4 hr and 24 h by retro-orbital bleeding. Blood lymphocyte counts were determined on an ADVIA® 120 Hematology Analyzer (Siemens Healthcare Diagnostics). The results were measured as a reduction in the percentage of circulating lymphocytes as compared to the vehicle treated group at the 4 hr and 24 hr measurement. The results represent the average results of all animals within each treatment group (n=3-4).
(§6) A compound of the present invention was tested in the Blood Lymphocyte Reduction assay (BLR) described hereinabove and the results are shown in Table D for rats and Table E for mice.

circulating lymphocytes [5] = assay: Blood Lymphocyte Reduction Assay (BLR) in mice; format: in vivo; settings: BALB/c mice, oral, vs vehicle group
Experimental: as §4, §5, §6

T1 sequence (P21453 whole entry): as the sequence (P21453 whole entry) above

O=C(O)C1CN(Cc2ccc(-c3noc(-c4onc(-c5ccccn5)c4C(F)(F)F)n3)cc2)C1 [Example 1, 1-(4-(5-(3-(Pyridin-2-yl)-4-(trifluoromethyl)isoxazol-5-yl)-1,2,4-oxadiazol-3-yl)benzyl)azetidine-3-carboxylic acid]
IC50 (human S1P1): 0.21 nM | EC50 [1]: 1.4 nM | EC50 ([2]; Method B SPA, S1P1 transfected CHO membranes): 0.17 nM | GTPγS S1P3/S1P1 (Method B) ([2]; ratio of GTPγS S1P3 EC50 to GTPγS S1P1 EC50, Method B): 37,000 | EC50 [3]: 6200 nM | % reduction in lymphocytes at 4 hr. (circulating lymphocytes [4]; 0.3 mg/kg): 82% | % reduction in lymphocytes at 24 hr. (circulating lymphocytes [4]; 0.3 mg/kg): 48% | % reduction in lymphocytes at 4 hr. (circulating lymphocytes [4]; 1.0 mg/kg): 85% | % reduction in lymphocytes at 24 hr. (circulating lymphocytes [4]; 1.0 mg/kg): 80% | % reduction in lymphocytes at 4 hr. (circulating lymphocytes [5]; 0.008 mg/kg): 13% | % reduction in lymphocytes at 24 hr. (circulating lymphocytes [5]; 0.008 mg/kg): 8% | % reduction in lymphocytes at 4 hr. (circulating lymphocytes [5]; 0.04 mg/kg): 67% | % reduction in lymphocytes at 24 hr. (circulating lymphocytes [5]; 0.04 mg/kg): 39% | % reduction in lymphocytes at 4 hr. (circulating lymphocytes [5]; 0.2 mg/kg): 82% | % reduction in lymphocytes at 24 hr. (circulating lymphocytes [5]; 0.2 mg/kg): 74% | % reduction in lymphocytes at 4 hr. (circulating lymphocytes [5]; 1.0 mg/kg): 83% | % reduction in lymphocytes at 24 hr. (circulating lymphocytes [5]; 1.0 mg/kg): 77%
